In US20030113322A1, “CDR-H1-derived peptide CB11, pharmaceutical compositions made therefrom and methods of treating disorders in mammals” (priority 2001, published 2003):
Positions of bridges follow the written chain, without caps; N, C: chain ends. Residues, ends and D or L forms follow the SMILES beside them. No end group written: not given here.

Tests used:
[1] = test system: HeLa P4 indicator cells infected with HIV-1Lai; assay: HIV-1 promoter activation assay (LTR-driven β-galactosidase); assay type: cell-based
Experimental: HeLa P4 indicator cells (8×10^4 cells/ml) were cultured in medium supplemented or not with infectious HIV-1Lai in the presence or absence of antibodies for three days, harvested and lysed. β-galactosidase activity was then determined as previously described by measuring the absorbance at 410 nm.
HeLa P4 indicator cells (8×10^4 cells/ml) were cultured in medium supplemented or not with 1000 TCID50 of infectious HIV-1Lai in the presence or absence of peptides or mAb for 3 days, harvested and lysed. The β-galactosidase activities were then determined as previously described by measuring the absorbance at 410 nm.

[2] = test system: pdb10F T cells stimulated by pep24-pulsed EBV-Lu antigen-presenting cells; assay: IL-2 secretion assay following antigen presentation; assay type: cell-based, murine; conditions: for inhibition of IL2 secretion: Example 2, Table 1 (table not given)
[3] = molecular target: T1, His6-sCD4 (Homo sapiens, UniProt P01730); assay: ELISA binding of His6-sCD4 to coated cyclic PDPs; conditions: 20 nM His6-sCD4, FIG. 8
T1 construct: codons 1 to 6, and the anti-sense primer SCD4RTB (5′-[…]), which contains the reverse complement of codons 367 to 372; made in house; host or cells: Spodoptera frugiperda Sf9 cells, baculovirus (p119L vector, P10 promoter)
Experimental: Three replicates corresponding to 10-fold serial dilutions of the nine cyclic PDPs (CB1-CB9) were coated overnight at 4° C. onto 96-well ELISA plates (Nunc. Paisley, UK) with an initial peptide concentration of 50 μM. Four washes in 160 mM PBS, pH 7.2, containing 0.1% Tween 20 (PBS-T) were performed before and after saturating the wells with 1% non-fat dry milk in PBT-T for 1 h at 37° C. Thereafter, 100 μl of 20 nM His6-sCD4 was added to each well. Following a 2 h incubation and four washes in PBS-T, bound His6-sCD4 was detected by addition of 100 μl of a 1:2000 solution of peroxidase-conjugated anti-His6 mAb (Sigma) and subsequent addition of peroxidase substrate. Absorbance was measured at 490 nm.

[4] = assay type: in vitro ADME
From the text: A relatively high concentration of peptides is preferred to achieve efficient biological activity with regard to the efficient antibody dose. […] We believe that use of D-amino acids for peptide synthesis would improve their metabolic stability.

[5] = peptide diluted in 20% acetonitrile buffer

| Compound | inhibition of HIV-1Lai LTR-driven β-galactosidase expression ([1]; Example 2, 3 days, FIG. 10A) | inhibition of IL2 secretion [2] | inhibition of HIV-1Lai LTR-driven β-galactosidase expression [1, 5] | CD4 binding of coated cyclic peptide [3] | also measured |
| --- | --- | --- | --- | --- | --- |
| FGDYYCLQYASS (not fully specified (N-terminus, C-terminus, bridges); also: cyclized (bridge not given here)) [Dig97c, unrelated peptide derived from the CDR-L3 region of the anti-digoxin 1C10 mAb, reference compound] | did not affect | – | – | – | – |
| CC[C@H](C)[C@@H]1NC(=O)[C@@H](NC(=O)[C@@H](N)CCCCN)CSSC[C@@H](C(=O)N[C@@H](CCCCN)C(N)=O)NC(=O)[C@H](CCC(N)=O)NC(=O)[C@H](CCCCN)NC(=O)[C@H](CCC(N)=O)NC(=O)[C@H](CCC(N)=O)NC(=O)[C@H](Cc2ccc(O)cc2)NC(=O)[C@H](Cc2c[nH]c3ccccc23)NC(=O)[C@H](C)NC(=O)[C@H](CC(C)C)NC(=O)[C@H](Cc2ccc(O)cc2)NC(=O)[C@H](CO)NC(=O)[C@H](Cc2ccc(O)cc2)NC1=O [CB8] (H-KCIYSYLAWYQQKQCK-NH2; disulfide 2-15) | – | lack of activity | lack of activity | – | – |
| GSDQWNKMQYYP (not fully specified (N-terminus, C-terminus, bridges); also: cyclized (bridge not given here)) [ScCM9, scrambled form of PDP CM9, Lys-Cys added at both termini, reference compound] | did not affect | no inhibition | – | non-reactivity | – |
| KEEICEVEDQTY (not fully specified (N-terminus, C-terminus, bridges); also: cyclized (bridge not given here)) [ScCDR3-like, scrambled form of the CD4-derived CDR3-like peptide] | – | – | – | non-reactivity | – |
| CC(C)C[C@@H]1NC(=O)[C@@H](NC(=O)[C@@H](N)CCCCN)CSSC[C@@H](C(=O)N[C@@H](CCCCN)C(N)=O)NC(=O)[C@H](CO)NC(=O)[C@H](CCC(N)=O)NC(=O)[C@H](CCCNC(=N)N)NC(=O)[C@H](C(C)C)NC(=O)[C@H](Cc2c[nH]c3ccccc23)NC(=O)[C@H](Cc2c[nH]cn2)NC(=O)[C@H](C(C)C)NC(=O)CNC(=O)[C@H](Cc2ccccc2)NC(=O)[C@H]([C@@H](C)O)NC(=O)[C@H]([C@@H](C)O)NC1=O [CB1] (H-KCLTTFGVHWVRQSCK-NH2; disulfide 2-15; N-terminus and C-terminus assumed) | – | – | no inhibition | – | decrease in binding of CD4 to peptide after pre-incubation [4]: 50%; concentration range with inhibitory activity of IL2 secretion ([2]; Example 2): 125 to 250 µM; inhibition of HIV-1Lai LTR-driven β-galactosidase expression ([1]; 50 μM peptide, 3 days, FIG. 10A): significant inhibition; IC50 ([1]; FIG. 10B, read-out: IC50 of inhibition of β-galactosidase activity): ~15 µM |
